# “Also recorded” adds a separate entry of the source. Structures can show the parent of a compound that is named as a salt. Where two headings read alike, the source gives them in different places.
# What was measured:
# [1] = tested on: serotonin; assay: antiserotonin action in respect of bronchospasm in the guinea-pig, method of Konzett and Rossler; assay type: in vivo; conditions: serotonin 20 μg/kg intravenously, anaesthetised guinea-pigs
# Description: The antiserotonin action in respect of bronchospasm has been studied in the guinea-pig under the following conditions:
# The bronchospasm is recorded by the method of Konzett and Rossler, which comprises connecting the trachea of the guinea-pig to an artificial respiration pump, which passes a constant volume of air, slightly greater than the respiratory capacity of the animal, into the bronchi at a physiological rhythm. The excess quantity of air, which varies according to the diameter of the bronchi, is discharged to a special manometric device which measures the volume of air at each inhalation.
# The serotonin is administered intravenously to the guinea-pigs in a dose of 20 μg/kg. The guinea-pigs have previously been anaesthetised with ethyl carbamate, thus producing a bronchial spasm.
# The product to be studied is then administered intravenously, after which the administration of serotonin is repeated one minute later. The percentage inhibition of bronchospasm is measured for each dose of the product to be studied, then the antiserotonin DE50 relative to bronchospasm in the guinea-pig is determined.
# [2] = tested on: apomorphine; assay: antiemetic power relative to apomorphine, dogs, method of Chen and Ensor; assay type: in vivo, dog; conditions: s.c. 30 minutes before apomorphine 100 μg/kg s.c.; for ED50: Canis lupus familiaris, sc, read-out: Antiapomorphine ED50 in the dog
# Description: The compounds of the invention have undergone other pharmacodynamic tests, and in particular their antiemetic power relative to apomorphine has been measured.
# The test has been carried out on dogs by the method of Chen and Ensor.
# The compounds of the invention are administered subcutaneously, 30 minutes before the apomorphine, which is administered subcutaneously in a dose of 100 μg/kg.
# [3] = tested on: serotonin; assay: antiserotonin action in connection with stomach ulceration in the rat; assay type: in vivo; conditions: sc
# Description: The antiserotonin action in connection with stomach ulceration has been studied in the rat under the following conditions:
# 30 mg/kg of serotonin is administered subcutaneously to female rats in two stages, with an interval of 16 hours. The product being studied is administered subcutaneously at the same time as the serotonin, in two stages with increasing doses. A group of 30 animals is used for each dose and a group of 60 animals is used as the control. The animals are sacrificed 22 hours after the first injection of serotonin, and their stomachs are taken out and examined. The percentage protection for each dose studied is determined, then the DE50, the dose protecting 50% of the animals, from gastric ulceration, is measured graphically.
# [4] = acute toxicity in mice (LD50); assay type: in vivo; conditions: mouse, in vivo, male mouse
# From the text: (§1) The acute toxicity of the compounds according to the invention has been studied in mice. The lethal doses 50 are set out in the table which follows:
# (§2) LD50 DETERMINED IN THE MALE MOUSE -
# [5] = tested on: male rats; assay: cataleptic action in male rats, subcutaneous; assay type: in vivo, rat; conditions: 200 mg/kg subcutaneously, after 7 hours
# Description: The cataleptic action has been studied as follows.
# Benzamides are administered subcutaneously to male rats. The criterion taken for the cataleptic state is that the animal should be immobile for 30 seconds with its rear limbs apart, arranged carefully on wooden cubes 4 cm high, which thus puts the animal in an unaccustomed and uncomfortable position.
# The cataleptic action is measured when the effect is at its maximum, i.e. 5 to 7 hours after the substance has been administered.
# [6] = tested on: male mouse; assay: acute toxicity in mice (LD50); assay type: in vivo
# From the text: as §1, §2
# [7] = tested on: alcoholic or heroin addicts; assay type: in vivo; conditions: 200 mg per day oral or intramuscular, of 30 patients
# Description: Thus for example, 200 mg per day of compound (1) was administered orally or by intramuscular injection to 30 patients who were alcoholic or heroin addicts. In 28 cases the product acted rapidly and the drug addicts asked for more. Its effect is different from that of opiates and the main antalgics.
# [8] = tested on: patients suffering from migraine; assay: clinical treatment of migraine; assay type: in vivo; conditions: single patients, 100-300 mg per day
# Description: Compound (1) was administered in a dose of three tablets per day (300 mg) to a patient suffering from frequent migraines; these obliged hereto interrupt any professional activity for three or four days per month.
# Compound (1) was administered in a daily dose of 300 mg taken in three portions, to two twin brothers who suffered each month from attacks of migraine accompanied by vomiting.
# Compound (2) was administered continuously, in doses of two tablets per day (200 mg), to a person who had suffered from attacks of migraine for four years. The attacks had not responded to curative treatment (ergotamine and caffeine) or preventive treatment.
# Compound (2) was administered in doses of three tablets per day (300 mg) to a person suffering from quasi permanent occipital cephalalgia and several times a week from attacks of migraine with right hemicrania, photophobia and nausea.
# [9] = tested on: patients suffering from catatonic hebephrenia; assay: clinical treatment of catatonic hebephrenia; assay type: in vivo; conditions: 100-300 mg daily oral or intramuscular, of 21 patients
# Description: 21 patients suffering from catatonic hebephrenia were treated with compound (1), a daily dose of 100-300 mg being given orally or by intramuscular injection. In 13 cases removal of inhibitions was observed, sometimes with a reversal of mood, which made it possible to make contact with the patient.
# [10] = tested on: patients suffering from sudden attacks of delirium; assay: clinical treatment of sudden attacks of delirium; assay type: in vivo; conditions: 350 mg per day oral or intramuscular
# Description: 41 patients suffering from sudden attacks of delirium were treated with 350 mg per day of compound (2), administered orally or by intramuscular injection.
# [11] = Rattus norvegicus, 22 h, female rats, serotonin 30 mg/kg s.c. in two stages, dose protecting 50% of the animals, read-out: Antiserotonin ED50 in respect of stomach ulceration, in the rat
SMILES,"ED50 [3, 11]","LD50 ([4]; ip, I.P.)",LD50 ([4]; iv),LD50 ([4]; po),"LD50 ([4]; sc, subcutaneous)",ED50 [2],further results
"CCN1CCCC1CNC(=O)c1cc(S(=O)(=O)CC)c(N)cc1OC (single isomer, unassigned) [Compound 4, Dextrorotatory tartrate of N-[1-ethyl 2-pyrrolidylmethyl]2-methoxy 4-amino 5-ethylsulphonyl benzamide]",0.46 mg/kg,188 mg/kg,39.8 mg/kg,1560 to 1620 mg/kg,254 to 263 mg/kg,–,Antiserotonin ED50 relative to bronchospasm in the guinea-pig [1]: 106 μg/kg/IV; Antiapomorphine ED50 in the dog [2]: 12 μg/kg/s.c.
"CCN1CCCC1CNC(=O)c1cc(S(=O)(=O)CC)c(N)cc1OC (single isomer, unassigned) [Compound 5, Levorotatory tartrate of N-[1-ethyl 2-pyrrolidylmethyl]2-methoxy 4-amino 5-ethylsulphonyl benzamide]",–,–,–,–,–,–,"cataleptic state, % of the animals [5]: 30%; Antiapomorphine ED50 in the dog [2]: 0.28 μg/kg/s.c.; LD50 ([6]; I.P.): 122 to 128 mg/kg; LD50 ([6]; intravenous): 44.8 mg/kg; LD50 ([6]; oral): 1109 to 1160 mg/kg; LD50 ([6]; subcutaneous): 137 to 149 mg/kg"
"CCS(=O)(=O)c1cc(C(=O)NCC2CCCN2C)c(OC)cc1N (single isomer, unassigned) [Compound 6, Dextrorotatory N-1-methyl 2-pyrrolidylmethyl 2-methoxy 4-amino 5-ethylsulphonyl benzamide]",0.34 to 0.44 mg/kg,304 to 322 mg/kg,62 to 64 mg/kg,1190 to 1260 mg/kg,380 to 396 mg/kg,0.008 mg/kg,–
"CCN1CCCC1CNC(=O)c1cc(S(=O)(=O)CC)c(N)cc1OC (stereo not drawn) [Compound 1, N-(1-ethyl 2-pyrrolidylmethyl) 2-methoxy 4-amino 5-ethylsulphonyl benzamide]",1 mg/kg,175 to 180 mg/kg,56 to 60 mg/kg,1020 to 1050 mg/kg,224 to 250 mg/kg,0.00029 mg/kg,cases in which the product acted rapidly [7]: 28 cases; Antiserotonin ED50 relative to bronchospasm in the guinea-pig [1]: 74 μg/kg/IV; effect on migraine (in words) [8]: The migraines decreased from the first month and disappeared altogether from the second month; also recorded: For one of the twins the migraine disappeared immediately; also recorded: For the other the pain disappeared from the second method and only a few attacks of nausea persisted; cases with removal of inhibitions [9]: 13 cases
"CCS(=O)(=O)c1cc(C(=O)NCC2CCCN2C)c(OC)cc1N (stereo not drawn) [Compound 2, N-[1-methyl 2-pyrrolidylmethyl]2-methoxy 4-amino 5-ethylsulphonyl benzamide]",0.4 mg/kg,210 to 217 mg/kg,56 to 57 mg/kg,1330 mg/kg,280 mg/kg,0.0008 mg/kg,"effect on migraine (in words) [8]: their intensity is decreasing; also recorded: From the third week the migraine attacks disappeared completely; antidepressive action ([10]; 41 patients): there was an antidepressive action; tolerance ([10]; 41 patients, all cases): excellent tolerance in all cases; cases with a very good antipsychotic action in sudden attacks of delirium ([10]; of 41 patients): 38 cases"
"C=CCN1CCCC1CNC(=O)c1cc(S(=O)(=O)CC)c(N)cc1OC (stereo not drawn) [Compound 3, N-[1-allyl 2-pyrrolidylmethyl]2-methoxy 4-amino 5-ethylsulphonyl benzamide]",0.65 mg/kg,216 to 217 mg/kg,106 to 107 mg/kg,2230 to 2380 mg/kg,312 to 330 mg/kg,0.00065 mg/kg,–
"CCCS(=O)(=O)c1cc(C(=O)NCC2CCCN2CC)c(OC)cc1N (stereo not drawn) [Compound 7, N(1ethyl 2pyrrolidylmethyl) 2methoxy 4amino 5propylsulphonyl benzamide]",3.2 mg/kg,160 to 165 mg/kg,43 to 46.8 mg/kg,570 to 629 mg/kg,140 to 144 mg/kg,0.0016 mg/kg,–
"CCN1CCCC1CNC(=O)c1cc(S(C)(=O)=O)c(N)cc1OC (stereo not drawn) [Compound 8, N-[1-ethyl 2-pyrrolidylmethyl]2-methoxy 4-amino 5-methylsulphonyl benzamide]",3 mg/kg,234 to 238 mg/kg,46.5 to 50 mg/kg,625 to 660 mg/kg,208 to 225 mg/kg,0.0027 mg/kg,–
"COc1cc(N)c(S(C)(=O)=O)cc1C(=O)NCC1CCCN1C (stereo not drawn) [Compound 9, N-[1-methyl 2-pyrrolidylmethyl]2-methoxy 4-amino 5-methylsulphonyl benzamide]",1.14 mg/kg,200 to 216 mg/kg,54 mg/kg,–,202 mg/kg,0.007 mg/kg,–
"CCN1CCCC1CNC(=O)c1cc(S(N)(=O)=O)ccc1OC (stereo not drawn) [sulpiride, reference compound]",–,–,–,–,–,–,"ED50 ([3]; rat, comparator value in text, read-out: antiserotonin ED50 relative to stomach ulceration in the rat (comparator, text)): 110 mg/kg"

# — US4401822A, “Derivatives of 4-amino-5-alkyl sulphonyl orthoanisamides” (Societe de'Etudes Scientifiques et Industrielles de …, priority 1978, dated 1983)
